Measurements reported in the supplement of paper PMC10307832.

What was measured:
Assay in all cases: relative viability (nuclei count vs DMSO), 5 days (fraction); higher = more cells survive
Vismodegib + Pemetrexed = compound: CS(=O)(=O)c1ccc(C(=O)Nc2ccc(Cl)c(-c3ccccn3)c2)c(Cl)c1 [Vismodegib] + Nc1nc2[nH]cc(CCc3ccc(C(=O)N[C@@H](CCC(=O)O)C(=O)O)cc3)c2c(=O)[nH]1 [Pemetrexed] (partner 0.2 µM)
Procedure, shortened: (§1)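 A single step with final 0.05% Triton X-100, 1% formaldehyde and 1 ug/ml Hoechst fixed the cells and stained nuclei 5 days after treatment. Lung cancer cell lines in 1536-well plates had been treated by pin tool the day after seeding with one drug alone or a fixed anchor-drug dose plus five library-drug doses (not always all listed) in √10 steps, and nuclei were counted on 4× images. Relative viability is the ratio of nuclei in treated wells to nuclei in vehicle wells, taken as the median of duplicate plates.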

Ruxolitinib + OSI-027 = compound: N#CC[C@H](C1CCCC1)n1cc(-c2ncnc3[nH]ccc23)cn1 [Ruxolitinib] + COc1cccc2cc(-c3nc([C@H]4CC[C@H](C(=O)O)CC4)n4ncnc(N)c34)[nH]c12 [OSI-027] (partner 0.5 µM)
Procedure, shortened: as §1

VE-821 + Bortezomib = compound: CS(=O)(=O)c1ccc(-c2cnc(N)c(C(=O)Nc3ccccc3)n2)cc1 [VE-821] + CC(C)C[C@H](NC(=O)[C@H](Cc1ccccc1)NC(=O)c1cnccn1)B(O)O [Bortezomib] (partner 0.002 µM)
Procedure, shortened: as §1

VE-821 + Linsitinib = compound: CS(=O)(=O)c1ccc(-c2cnc(N)c(C(=O)Nc3ccccc3)n2)cc1 [VE-821] + C[C@]1(O)C[C@@H](c2nc(-c3ccc4ccc(-c5ccccc5)nc4c3)c3c(N)nccn32)C1 [Linsitinib] (partner 1 µM)
Procedure, shortened: as §1

Row | Cell Line | relative viability (Vismodegib + Pemetrexed; first compound 0.08 µM) | relative viability (Vismodegib + Pemetrexed; first compound 0.253 µM) | relative viability (Vismodegib + Pemetrexed; first compound 0.8 µM) | relative viability (Vismodegib + Pemetrexed; first compound 2.53 µM) | relative viability (Vismodegib + Pemetrexed; first compound 8 µM) | relative viability (Ruxolitinib + OSI-027; first compound 0.08 µM) | relative viability (Ruxolitinib + OSI-027; first compound 0.253 µM) | relative viability (Ruxolitinib + OSI-027; first compound 0.8 µM) | relative viability (Ruxolitinib + OSI-027; first compound 2.53 µM) | relative viability (Ruxolitinib + OSI-027; first compound 8 µM) | relative viability (VE-821 + Bortezomib; first compound 0.08 µM) | relative viability (VE-821 + Bortezomib; first compound 0.253 µM) | relative viability (VE-821 + Bortezomib; first compound 0.8 µM) | relative viability (VE-821 + Bortezomib; first compound 2.53 µM) | relative viability (VE-821 + Bortezomib; first compound 8 µM) | relative viability (VE-821 + Linsitinib; first compound 0.08 µM) | relative viability (VE-821 + Linsitinib; first compound 0.253 µM) | relative viability (VE-821 + Linsitinib; first compound 0.8 µM) | relative viability (VE-821 + Linsitinib; first compound 2.53 µM) | relative viability (VE-821 + Linsitinib; first compound 8 µM)
1 | HCC-78 | 0.907 | 0.951 | 0.961 | 0.785 | 0.891 | 0.36 | 0.337 | 0.33 | 0.383 | 0.365 | 0.697 | 0.561 | 0.471 | 0.549 | 0.303 | 0.626 | 0.575 | 0.404 | 0.477 | 0.328
2 | HCC-366 | 0.164 | 0.17 | 0.186 | 0.166 | 0.158 | 0.984 | 0.771 | 1.01 | 0.819 | 0.828 | 1.06 | 1.03 | 1.04 | 0.625 | 0.062 | 0.907 | 0.49 | 0.329 | 0.477 | 0.0616
3 | HCC-827 | 0.246 | 0.283 | 0.563 | 0.284 | 0.267 | – | 0.516 | 0.586 | 0.537 | 0.714 | 1.01 | 0.996 | 1.04 | 1.12 | 1.08 | 0.932 | 1.01 | 0.909 | 0.934 | 0.976
4 | HOP-62 | 0.305 | 0.295 | 0.263 | 0.377 | 0.272 | 0.874 | 0.724 | 0.91 | 0.825 | 0.824 | 0.726 | 0.389 | 0.889 | 0.838 | 0.718 | 0.838 | 0.911 | 0.933 | 1.23 | 0.873
5 | IA-LM | – | – | – | – | – | – | – | – | – | – | 0.762 | 0.795 | 0.781 | 0.803 | 0.764 | 0.836 | 0.54 | 0.741 | 0.903 | 0.636
6 | LC-2-ad | 0.269 | 0.271 | 0.278 | 0.276 | 0.26 | – | 0.667 | 0.859 | 0.733 | 0.524 | 1.19 | 1.06 | 0.569 | 1.17 | 1.07 | 0.88 | 0.764 | 0.821 | 0.925 | 0.661
7 | LCLC-97TM1 | 0.205 | 0.171 | 0.149 | 0.176 | 0.178 | 0.502 | 0.3 | 0.362 | 0.488 | 0.563 | 0.633 | 0.634 | 0.726 | 0.541 | 0.568 | 0.186 | 0.2 | 0.19 | 0.183 | 0.191
8 | LK-2 | 0.248 | 0.255 | 0.307 | 0.238 | 0.266 | 0.222 | 0.187 | 0.18 | 0.182 | 0.214 | – | – | – | – | – | 0.583 | 0.595 | 0.662 | 0.705 | 0.501
9 | NCI-H358 | 0.18 | 0.183 | 0.174 | 0.172 | 0.181 | 0.417 | 0.654 | 0.754 | 0.406 | 0.565 | – | – | – | – | – | 0.812 | 0.777 | 0.723 | 1.09 | 0.469
